{"source": "patent US4610879A", "about": "(priority 1984, dated 1986)", "key": {"[1]": {"molecular_target": "fibrinolytic enzyme from Southern Copperhead venom (Agkistrodon contortrix contortrix, UniProt P28891)", "sequence (P28891 whole entry, looked up)": "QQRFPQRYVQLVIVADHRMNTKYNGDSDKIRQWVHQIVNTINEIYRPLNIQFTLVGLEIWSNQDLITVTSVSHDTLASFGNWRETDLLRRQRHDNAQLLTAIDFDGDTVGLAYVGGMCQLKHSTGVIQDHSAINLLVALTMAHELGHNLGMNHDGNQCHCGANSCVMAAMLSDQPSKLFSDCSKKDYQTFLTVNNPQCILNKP", "assay": "biochemical", "type": "biochemical, Southern Copperhead snake (A.c. contortrix)"}, "rabbit plasma clot": {"tested_on": "rabbit plasma clot", "assay": "Plasma clot lysis, rabbit plasma", "type": "biochemical", "settings": "plasmin 1.08 caseinolytic units per milliliter, after twenty-four hours"}, "fibrin clots": {"tested_on": "fibrin clots", "assay": "Preliminary in vitro evaluation against fibrin clots in plasma", "type": "biochemical", "settings": "0.1 mgm purified venom enzyme, or plasmin"}, "azocasein": {"tested_on": "azocasein", "settings": "pure plasmin, for comparison; cited from earlier work"}, "human plasma clot": {"tested_on": "human plasma clot", "assay": "Plasma clot lysis, human plasma", "type": "biochemical", "settings": "plasmin 1.08 caseinolytic units per milliliter, after twenty-four hours"}, "[2]": {"tested_on": "autologous or human clots", "assay": "Streptokinase regimens in animal clot models", "type": "in vivo, dogs, pigs, and rabbits", "settings": "increasing the rate of streptokinase infusion"}, "[3]": {"tested_on": "purified human plasminogen", "assay": "Plasminogen activation measured by S-2251 hydrolysis", "type": "biochemical", "settings": "aliquots of the venom enzyme-plasminogen mixture treated with streptokinase"}}}
{"compound": "O=C(O)c1cc[c]([Hg][Cl])cc1", "note": "[p-Chloromercuribenzoate]", "values": [{"measurement": "Inhibition of the venom fibrinolytic enzyme (in words)", "setting": "[1]", "value": "not inhibited"}]}
{"compound": "c1cnc2c(c1)ccc1cccnc12", "note": "[o-phenanthroline]", "values": [{"measurement": "Inhibition of the venom fibrinolytic enzyme (in words)", "setting": "[1]", "value": "inhibited"}]}
{"compound": "O=C(O)CN(CCN(CC(=O)O)CC(=O)O)CC(=O)O", "note": "[EDTA]", "values": [{"measurement": "Inhibition of the venom fibrinolytic enzyme (in words)", "setting": "[1]", "value": "inhibited"}, {"measurement": "inhibition at 50000 µM", "setting": "[1]; read-out: Inhibition of Azocaseinolytic Activity", "value": 92, "unit": "%"}]}
{"compound": "plasmin", "values": [{"measurement": "Plasma clot lysis", "setting": "rabbit plasma clot", "value": "did not lyse"}, {"measurement": "Fibrin clot lysis in plasma clotted with thrombin", "setting": "fibrin clots", "value": "no fibrin clot lysis"}, {"measurement": "Plasmin activity", "setting": "azocasein", "value": "30-35 units per mg"}, {"measurement": "Plasma clot lysis", "setting": "human plasma clot", "value": "did not lyse"}]}
{"compound": "streptokinase", "values": [{"measurement": "Acceleration of clot lysis", "setting": "[2]", "value": "ineffective in significantly accelerating clot lysis"}, {"measurement": "S-2251 hydrolyzing activity (plasmin formed)", "setting": "[3]", "value": "hydrolyzing activity was generated"}]}
{"compound": "α2 -Macroglobulin", "values": [{"measurement": "Inhibition of Azocaseinolytic Activity", "setting": "[1]", "value": 95, "unit": "%"}, {"measurement": "Inhibition of the venom fibrinolytic enzyme (in words)", "setting": "[1]", "value": "inhibits"}]}
